Experiments:
[1] = tested on: Aptamer 21; test: LC-MS analysis of cross-linked RNA; format: binding
Procedure: (§1) Folded RNA (1.33 μM) was incubated with or without the photoaffinity probe (20 μM) in total 100 μL of buffer (20 mM TrisHCl pH 8, 100 mM KCl, 3 mM MgCl2) with 2% DMSO for 30 min at 37° C. to allow binding to come to equilibrium. The sample was then irradiated with long wave UV light (˜365 nm) for 30 min in a UV crosslinker (Fisher Scientific).
The RNA was then precipitated by adding 10 μL of 3 M sodium acetate pH 5 and 275 μL ethanol, cooling to −80° C. for 1 h, and then centrifuging at 20,500×g at 4° C. for 30 min. The RNA pellet was washed with 500 μL of 70% ethanol, air dried for 5 min, and then resuspended in 120 μL of water.
50 μL of RNA sample was injected onto Clarity 2.6 μm Oligo X-T column (50*2.1 mm, 60° C.), and the gradient and flowrate were as follows: 95% A/5% B to 75% A/25% B over 5 min, flowrate: 400 μL/min; 75% A/25% B to 30% A/70% B over 1 min, flowrate: 400 μL/min; 100% D over 1 min, flowrate: 500 μL/min; 95% A/5% B over 2 min, flowrate: 500 μL/min (A: 1% HFIPA (hexafluoroisopropyl alcohol), 0.1% DIEA (diisopropylethylamine), 1 μM EDTA (ethylenediamine tetraacetic acid) in H2O; B: 0.075% HFIPA, 0.0375% DIEA, 1 μM EDTA in 65/35 MeCN/H2O; D: 40/40/20% MeOH/MeCN/H2O); The LCMS instrument was a Thermo Finnigan LTQ, and ProMass deconvolution software coupled with Xcaliber were used for all data processing.

[2] = tested on: Aptamer 21; test: Surface plasmon resonance (SPR) binding to Aptamer 21; conditions: for binding to Aptamer 21 by SPR, separated enantiomers: 10 uM
Text: Surface plasmon resonance (SPR) may be used to screen ligands and hook and click constructs for binding to a target RNA of interest. SPR is especially useful for monitoring biomolecular interactions in real time. Typically, target species and unrelated control are immobilized to a sensor chip, then analytes (compounds/fragments) are flowed over the surface. Binding of the compound to target species results in increase of SPR signal (association phase). Washing away bound compound with buffer results in a decrease of SPR signal (dissociation phase). Fitting of sensorgrams recorded at different compound concentrations is performed to an appropriate interaction model. The method allows extraction of kinetic parameters (ka, kd→KD). Requirements/limitations include that the ka/kd values be in reasonable ranges; and the target size must not be too large (<100 kDa). It is an excellent method to screen fragments and profile or validate hits. BC4000 may be used for primary screening (up to 4,000 data pts/week). Biacore T200 is suitable for hit profiling and validation.
In the PEARL-seq context, SPR allows monitoring binding of “hooks” to DNA/RNA aptamers. The target species is immobilized to sensor chip, analytes (i.e. hooks) are flowed over surface (association phase), DNA/RNA aptamer is flowed over surface (plateau phase), competitor compound is washed over surface (dissociation phase), thus yielding binding data.
Experiments were performed on a MASS-2 (Sierra Sensors) at 25° C. A high capacity amine chip was equilibrated with PBS. The chip was conditioned with alternating injections of 10 mM HCl and 10 mM NaOH in 1 M NaCl. The carboxymethylated dextran of the surface of the amine chip was activated for 7 minutes at a flow rate of 10 μL/min using a 1:1 volume ratio of 0.4 M 1-ethyl-3-(3-dimethylaminopropyl) carbodiimide (Sierra) and 0.1 M N-hydroxysuccinimide (Sierra). Neutravidin (70 μg/mL, Thermofisher) was injected over the activated surface for 10 minutes at a flow rate of 10 μl/min. Excess activated groups were blocked by an injection of 1 M ethanolamine, pH 8.5 (Sierra) for 7 minutes at a flow rate of 10 μl/min. A final injection of 10 mM NaOH in 1 M NaCl for 7 minutes at 10 μl/min was used to remove any unbound material to the chip. The immobilization reaction typically yielded approximately 12,000 resonance units (RU) of neutravidin. At least one spot in a channel was not injected with RNA and was used as a background control. Unrelated RNA was also used as a background control.
A 1 μM sample of biotin-aptamer 21 was prepared in RNAse free water, heated to 95° C. for 3 minutes, cooled on ice for 4 minutes, diluted with an equal volume 2× folding buffer (40 mM Tris-HCl, pH 8.0, 6 mM MgCl2, 200 mM KCl), and incubated at 37° C. for 30 minutes. The final concentration of RNA was 0.5 μM.
The MASS-2 was primed 2 times with 20 mM Tris-HCl, pH 8.0, 3 mM MgCl2, 100 mM KCl (Capture Buffer). RNA was injected over the neutravidin surface for 7 minutes at a flow rate of 10 μl/min. Capture levels typically reached approximately 3500-4500 of resonance units of aptamer 21.
Compounds were diluted 2-fold in 100% DMSO at a starting concentration of 500 μM.
The MASS-2 was primed 2 times with 20 mM Tris-HCl, pH 8.0, 3 mM MgCl2, 100 mM KCl, 1% DMSO (running buffer). Prior to testing compounds 3 injections of running buffer were used to equilibrate the sensor surface. […]

[3] = tested on: Aptamer 21; test: Competition between Aptamer 21 photoprobes and RNA-binding ligands (RT pausing)
Procedure: Aptamer 21 was either incubated with probe alone (ARK-581) or probe plus a 10-fold excess of RNA-binding ligand.
Both ARK-852 and ARK-139 inhibit the photocrosslinking of probes to Aptamer 21.
as §1, with “RNA (1” for “RNA (1.33”, “with” for “with or without”, “probe (10” for “probe (20”, “total 25” for “total 100”, “with 2.5%” for “with 2%”
(§2) A 3.75 μL aliquot of 10 μM reverse transcription primer was added to the cross-linked RNA sample, which was then incubated for 5 min at 65° C. and then cooled on ice. The sample was then diluted to a final volume of 60 μL and final buffer concentration of 1× Protoscript-II buffer (New England Biolabs), 0.5 mM dNTPs, 10 mM DTT, 0.4 U/μL RNase Inhibitor (New England Biolabs), and 10 U/μL Protoscript-II (New England Biolabs). The reaction was incubated at 45° C. for 2 h, 65° C. for 20 min, and then 4° C.
(§3) The RNA was hydrolyzed by the addition of 4.8 μL of 2.5 M NaOH and heating at 95° C. for 5 min. The reaction was quenched by the addition of 0.9 μL of acetic acid. The cDNA was precipitated by the addition of 6.6 μL of 3 M sodium acetate pH 5 and 181 μL ethanol, cooling to −80° C. for 1 h, and then centrifuging at 20,500×g at 4° C. for 30 min. The cDNA pellet was washed twice with 500 μL of 70% ethanol and then air dried for 5 min.
(§4) The cDNA pellet was resuspended in 12 μL of 1×TBE-urea sample loading buffer (Bio-Rad) and heated to 95° C. for 5 min. The sample was then run on a pre-cast 8.6×6.7 cm TBE-urea 10% PAGE gel (Bio-Rad) at 120 V until the lower bromophenol blue dye reached the bottom of the gel. The gel was stained with 1×SYBR-gold (Invitrogen) in 1×TBE buffer at room temperature for 20 min covered from light. The gel fluorescence was imaged on an Azure c600 instrument.

[4] = tested on: Aptamer 21; test: Reverse transcriptase pausing (drop-off) gel assay of photo-crosslinking to Aptamer 21; format: binding; conditions: FIG. 52
Procedure: A solution of RNA at 2 to 5 μM in nuclease-free water was heated to 95° C. for 3 min and then cooled on ice for 2 min. This solution was diluted with ½ volume of 3×RNA folding buffer (60 mM TrisHCl pH 8, 300 mM KCl, 9 mM MgCl2) and incubated at 37° C. for 20 min. Folding was carried out immediately before use of the RNA in each experiment. In cases where a mixture of RNA molecules was used in vitro the RNAs were folded separately and then combined prior to the probing experiment.
as §1, with “RNA (1” for “RNA (1.33”, “with” for “with or without”, “probe (10” for “probe (20”, “total 25” for “total 100”, “with 2.5%” for “with 2%”
as §2, §3, §4

For `COC(=O)C1=C(COCc2cn(CCOCCOCCNC(=O)c3ccc(N=[N+]=[N-])cc3)nn2)NC(c2ccncc2)=NC1c1ccc(F)cc1Cl` (stereo not shown) [ARK-581], the “covalent modification of the RNA by LC-MS” value [1] was 10%.
`COC(=O)C1=C(COCc2cn(CCOCCOCCO)nn2)NC(c2ccncc2)=N[C@H]1c1ccc(F)cc1Cl` [ARK-701, (R)-methyl 4-(2-chloro-4-fluorophenyl)-6-(((1-(2-(2-(2-hydroxyethoxy)ethoxy)ethyl)-1H-1,2,3-triazol-4-yl)methoxy)methyl)-2-(pyridin-4-yl)-1,4-dihydropyrimidine-5-carboxylate] was tested, and the “binding to Aptamer 21 by SPR, separated enantiomers” value [2] was “did bind”.
With `COC(=O)C1=C(COCc2cn(CCOCCOCCO)nn2)NC(c2ccncc2)=N[C@@H]1c1ccc(F)cc1Cl` [ARK-702, (S)-methyl 4-(2-chloro-4-fluorophenyl)-6-(((1-(2-(2-(2-hydroxyethoxy)ethoxy)ethyl)-1H-1,2,3-triazol-4-yl)methoxy)methyl)-2-(pyridin-4-yl)-1,4-dihydropyrimidine-5-carboxylate] the “binding to Aptamer 21 by SPR, separated enantiomers” value [2] was “did not bind”.
For `Cc1ccc(C(=O)N2Cc3ccccc3C[C@H]2C(N)=O)cc1NCc1c(F)ccc(O)c1F` [ARK-852], the “inhibition of photocrosslinking of ARK-581 to Aptamer 21” value ([3]; 10-fold excess of RNA-binding ligand over probe) was “efficiently inhibited”, the “inhibition of photocrosslinking of probes to Aptamer 21 (RT pausing competition assay)” value ([3]; FIG. 65) was “inhibit” and the “binding to Aptamer 21 by SPR” value [2] was “SPR-active”.
`Cc1ncccc1C(=O)n1ccnc1` [NAI, 2-methylnicotinic acid imidazolide, reference compound] was tested, and the “shortened sequences produced in PEARL-seq reverse transcriptase pausing gel assay” value [4] was “numerous shortened sequences”.
